# Measured values as given in PubChem BioAssay AID1259407 (Chemical Carcinogenesis Research Information System (CCRIS), 2018).
# Activity calls are given as the source filed them. How the calls were made is not given here.
# Test system: CCRIS mutagenicity, Ames/micronucleus/aberration tests
# Test: CCRIS mutagenicity studies
# [1] = Test System: AMES SALMONELLA TYPHIMURIUM, Strain/Indicator: TA98, Metabolic Activation: NONE, Method: PREINCUBATION
# [2] = Test System: AMES SALMONELLA TYPHIMURIUM, Strain/Indicator: TA100, Metabolic Activation: NONE, Method: PREINCUBATION
# [3] = Test System: AMES SALMONELLA TYPHIMURIUM, Strain/Indicator: TA1535, Metabolic Activation: NONE, Method: PREINCUBATION
# [4] = Test System: AMES SALMONELLA TYPHIMURIUM, Strain/Indicator: TA1537, Metabolic Activation: NONE, Method: PREINCUBATION
# [5] = Test System: AMES SALMONELLA TYPHIMURIUM, Strain/Indicator: TA98, Metabolic Activation: HAMSTER, LIVER, S-9, AROCLOR 1254, Method: PREINCUBATION
# [6] = Test System: AMES SALMONELLA TYPHIMURIUM, Strain/Indicator: TA98, Metabolic Activation: RAT, LIVER, S-9, AROCLOR 1254, Method: PREINCUBATION
# [7] = Test System: AMES SALMONELLA TYPHIMURIUM, Strain/Indicator: TA100, Metabolic Activation: HAMSTER, LIVER, S-9, AROCLOR 1254, Method: PREINCUBATION
# [8] = Test System: AMES SALMONELLA TYPHIMURIUM, Strain/Indicator: TA100, Metabolic Activation: RAT, LIVER, S-9, AROCLOR 1254, Method: PREINCUBATION
# [9] = Test System: AMES SALMONELLA TYPHIMURIUM, Strain/Indicator: TA1535, Metabolic Activation: HAMSTER, LIVER, S-9, AROCLOR 1254, Method: PREINCUBATION
# [10] = Test System: AMES SALMONELLA TYPHIMURIUM, Strain/Indicator: TA1535, Metabolic Activation: RAT, LIVER, S-9, AROCLOR 1254, Method: PREINCUBATION
# [11] = Test System: AMES SALMONELLA TYPHIMURIUM, Strain/Indicator: TA1537, Metabolic Activation: HAMSTER, LIVER, S-9, AROCLOR 1254, Method: PREINCUBATION
# [12] = Test System: AMES SALMONELLA TYPHIMURIUM, Strain/Indicator: TA1537, Metabolic Activation: RAT, LIVER, S-9, AROCLOR 1254, Method: PREINCUBATION
Structure (SMILES),mutagenic call [1],mutagenic call [2],mutagenic call [3],mutagenic call [4],mutagenic call [5],mutagenic call [6],mutagenic call [7],mutagenic call [8],mutagenic call [9],mutagenic call [10],mutagenic call [11],mutagenic call [12],further results
Nc1cccc([N+](=O)[O-])c1N,active; positive,active; positive,–,–,–,–,–,–,–,–,–,–,"mutagenic call (Test System: AMES SALMONELLA TYPHIMURIUM, Strain/Indicator: TA98(NR), Metabolic Activation: NONE, Method: PREINCUBATION): active; positive; mutagenic call (Test System: AMES SALMONELLA TYPHIMURIUM, Strain/Indicator: TA98(NR), Metabolic Activation: RAT, LIVER, S-9, AROCLOR 1254, Method: PREINCUBATION): active; positive; mutagenic call (Test System: AMES SALMONELLA TYPHIMURIUM, Strain/Indicator: TA100(NR), Metabolic Activation: NONE, Method: PREINCUBATION): active; positive; mutagenic call (Test System: AMES SALMONELLA TYPHIMURIUM, Strain/Indicator: TA100(NR), Metabolic Activation: RAT, LIVER, S-9, AROCLOR 1254, Method: PREINCUBATION): active; positive; mutagenic call (Test System: AMES SALMONELLA TYPHIMURIUM, Strain/Indicator: TA100, Metabolic Activation: NONE, Method: STANDARD PLATE): active; positive; mutagenic call (Test System: AMES SALMONELLA TYPHIMURIUM, Strain/Indicator: TA104, Metabolic Activation: NONE, Method: STANDARD PLATE): active; positive; mutagenic call (Test System: AMES SALMONELLA TYPHIMURIUM, Strain/Indicator: TA4001, Metabolic Activation: NONE, Method: STANDARD PLATE): inactive; negative; mutagenic call (Test System: AMES SALMONELLA TYPHIMURIUM, Strain/Indicator: TA4006, Metabolic Activation: NONE, Method: STANDARD PLATE): active; positive; mutagenic call (Test System: AMES SALMONELLA TYPHIMURIUM, Strain/Indicator: TA7001, Metabolic Activation: NONE, Method: STANDARD PLATE): active; positive; mutagenic call (Test System: AMES SALMONELLA TYPHIMURIUM, Strain/Indicator: TA7001, Metabolic Activation: RAT LIVER S-9, AROCLOR 1254, Method: STANDARD PLATE): inactive; negative; mutagenic call (Test System: AMES SALMONELLA TYPHIMURIUM, Strain/Indicator: TA7002, Metabolic Activation: NONE, Method: STANDARD PLATE): active; positive; mutagenic call (Test System: AMES SALMONELLA TYPHIMURIUM, Strain/Indicator: TA7003, Metabolic Activation: NONE, Method: STANDARD PLATE): active; positive; mutagenic call (Test System: AMES SALMONELLA TYPHIMURIUM, Strain/Indicator: TA7003, Metabolic Activation: RAT LIVER S-9, AROCLOR 1254, Method: STANDARD PLATE): inactive; negative; mutagenic call (Test System: AMES SALMONELLA TYPHIMURIUM, Strain/Indicator: TA7004, Metabolic Activation: NONE, Method: STANDARD PLATE): active; positive; mutagenic call (Test System: AMES SALMONELLA TYPHIMURIUM, Strain/Indicator: TA7004, Metabolic Activation: RAT LIVER S-9, AROCLOR 1254, Method: STANDARD PLATE): inactive; negative; mutagenic call (Test System: AMES SALMONELLA TYPHIMURIUM, Strain/Indicator: TA7005, Metabolic Activation: NONE, Method: STANDARD PLATE): active; positive; mutagenic call (Test System: AMES SALMONELLA TYPHIMURIUM, Strain/Indicator: TA7006, Metabolic Activation: NONE, Method: STANDARD PLATE): inactive; negative; mutagenic call (Test System: CHINESE HAMSTER OVARY, Strain/Indicator: CHO-K1-BH4 (HGPRT), Metabolic Activation: NONE, Method: SUSPENSION/PLATE): active; positive"
CCCNCCC,inactive; negative,inactive; negative,inactive; negative,inactive; negative,–,–,–,–,–,–,–,–,"mutagenic call (Test System: AMES SALMONELLA TYPHIMURIUM, Strain/Indicator: TA98, Metabolic Activation: HAMSTER, LIVER, S-9, AROCLOR 1254 (10%), Method: PREINCUBATION): inactive; negative; mutagenic call (Test System: AMES SALMONELLA TYPHIMURIUM, Strain/Indicator: TA98, Metabolic Activation: RAT, LIVER, S-9, AROCLOR 1254 (10%), Method: PREINCUBATION): inactive; negative; mutagenic call (Test System: AMES SALMONELLA TYPHIMURIUM, Strain/Indicator: TA100, Metabolic Activation: HAMSTER, LIVER, S-9, AROCLOR 1254 (10%), Method: PREINCUBATION): inactive; negative; mutagenic call (Test System: AMES SALMONELLA TYPHIMURIUM, Strain/Indicator: TA100, Metabolic Activation: RAT, LIVER, S-9, AROCLOR 1254 (10%), Method: PREINCUBATION): inactive; negative; mutagenic call (Test System: AMES SALMONELLA TYPHIMURIUM, Strain/Indicator: TA1535, Metabolic Activation: HAMSTER, LIVER, S-9, AROCLOR 1254 (10%), Method: PREINCUBATION): inactive; negative; mutagenic call (Test System: AMES SALMONELLA TYPHIMURIUM, Strain/Indicator: TA1535, Metabolic Activation: RAT, LIVER, S-9, AROCLOR 1254 (10%), Method: PREINCUBATION): inactive; negative; mutagenic call (Test System: AMES SALMONELLA TYPHIMURIUM, Strain/Indicator: TA1537, Metabolic Activation: HAMSTER, LIVER, S-9, AROCLOR 1254 (10%), Method: PREINCUBATION): inactive; negative; mutagenic call (Test System: AMES SALMONELLA TYPHIMURIUM, Strain/Indicator: TA1537, Metabolic Activation: RAT, LIVER, S-9, AROCLOR 1254 (10%), Method: PREINCUBATION): inactive; negative"
CN(C)C(=O)Nc1ccc(Cl)cc1,inactive; negative,inactive; negative,inactive; negative,inactive; negative,inactive; negative,inactive; negative,inactive; negative,inactive; negative,inactive; negative,inactive; negative,inactive; negative,inactive; negative,"mutagenic call (End Point: IN VITRO CHROMOSOMAL ABERRATIONS, Test System: CHINESE HAMSTER OVARY CELLS, Metabolic Activation: NONE): inactive; negative; precipitation occurred at all doses; mutagenic call (End Point: IN VITRO CHROMOSOMAL ABERRATIONS, Test System: CHINESE HAMSTER OVARY CELLS, Metabolic Activation: RAT, LIVER, S-9, AROCLOR 1254): active; positive; precipitation occurred at all doses"
CCCCOC(=O)c1ccc(N)cc1,inactive; negative,inactive; negative,inactive; negative,inactive; negative,inactive; negative,inactive; negative,inactive; negative,inactive; negative,inactive; negative,inactive; negative,inactive; negative,inactive; negative,–
O=[N+]([O-])c1cccc(CBr)c1,inactive; negative,inactive; negative,–,–,–,–,–,inactive; negative,–,–,–,–,–
